Assays:
[1] = system: Zymoseptoria tritici strain Zt Tri-R6; test: Preventive treatment of wheat plants, inoculated leaf fragments (detached leaf test), necrosis length / AUDPC; assay type: in vivo
Description: A study was conducted to evaluate efficacy of multi-site fungicide (Captan) on zymoSeptoria tritici pathogen. Winter wheat plants cv. Alixan (Limagrain) at the BBCH 12 growth stage were treated with a hand sprayer at 2 bars calibrated to deliver the equivalent of 200 L/ha. Three replicates (pots) of 6 wheat plants each are used for all conditions tested. After treatment, wheat plants are left to dry at room temperature for 1 hour and then placed in a climatic chamber.
Twenty-four hours after treatments, 5-cm fragments of the first leaf are cut and transferred on 90-mm diameter Petri dish containing water agar supplemented with an anti-senescing compound (7 leaf fragments per Petri dish). Leaf fragments are then inoculated with a paint brush dipped into the calibrated pycnospores suspension of Z. tritici strain Mg Tri-R6.
After inoculation, Petri dishes are placed in adapted climatic conditions.
Disease assessments are carried out 21 and 28 days post inoculation (dpi) by measuring the length of the necrosis and the total length of the leaf fragment. The intensity of infection is then determined in percent of the total length of the leaf fragment. The values of the intensity of infection obtained are compared by means of the Newman and Keuls test (XL-Stat software, Addinsoft Ltd.).
The most commonly used method for estimating the Area Under the Disease Progress Curve (AUDPC), the trapezoidal method, is performed. The fungicide efficacy was determined from the intensity of infection and the AUDPC values and expressed in percent of the untreated control.

[2] = system: Speckled leaf blotch of wheat (Spetoria Titrici); test: Field trials (Trial 1 and Trial 2) in winter wheat, control of speckled leaf blotch; assay type: in vivo, Zymoseptoria tritici
Description: Two trials were conducted in Winter wheat/Triticum aestivum (winter), variety ADVISOR, to evaluate the control of Speckled leaf blotch of wheat (Spetoria Titrici) as primary target. All products were applied with a knapsack sprayer using compressed air as the propellant. The sprayer was equipped with a boom and flat fan nozzles, and calibrated to apply a homogeneous spray volume at a constant pressure.
Application method: Application A: At the beginning of disease attack and Application B: Renew the application when new disease attack occurs in the best plots, 3 weeks after application A (at least 2 weeks, at the most 4 weeks).

[3] = Dose 1600 g a.i./ha, strain Zt Tri-R6, wheat leaf fragments treated preventively

## O=C1C2CC=CCC2C(=O)N1SC(Cl)(Cl)Cl (stereo not drawn) [Captan]
[1]; 800 g/ha, strain Zt Tri-R6
  efficiency: 77%
[1]; 1600, 2400 and 3200 g/ha
  inhibition of the development of the Z. tritici strain into wheat leaf tissues: almost completely inhibits
[1]; Dose 800 g a.i./ha, strain Zt Tri-R6, wheat leaf fragments treated preventively
  Fungicide efficacy against Zymoseptoria tritici (% Control): 77.9 % Control
[1]; [3]
  Fungicide efficacy against Zymoseptoria tritici (% Control): 96.0 % Control
[1]; Dose 2400 g a.i./ha, strain Zt Tri-R6, wheat leaf fragments treated preventively
  Fungicide efficacy against Zymoseptoria tritici (% Control): 97.0 % Control
[1]; Dose 3200 g a.i./ha, strain Zt Tri-R6, wheat leaf fragments treated preventively
  Fungicide efficacy against Zymoseptoria tritici (% Control): 100 % Control
[1]; conclusion from Tables 1 to 5
  effectiveness for controlling Septoria tritici: effective for controlling Septoria tritici
[1]; lowest rate of 800 g/ha
  fungicidal efficacy against Zymoseptoria tritici strain Zt Tri-R6: very good fungicidal efficacy
[2]; Trial 1, winter wheat field, rate 1.8 L/ha, 28 DA-B (first 28 DA-B column)
  Fungicide efficacy against Zymoseptoria tritici (% Control): 32.4 % Control
[2]; Trial 1, winter wheat field, rate 1.8 L/ha, 28 DA-B (second 28 DA-B column)
  Fungicide efficacy against Zymoseptoria tritici (% Control): 24.5 % Control
[2]; Trial 2, winter wheat field, rate 1.8 L/ha, 26 DA-A
  Fungicide efficacy against Zymoseptoria tritici (% Control): 41.3 % Control
[2]; Trial 2, winter wheat field, rate 1.8 L/ha, 40 DA-A (first 40 DA-A column)
  Fungicide efficacy against Zymoseptoria tritici (% Control): 31.9 % Control
[2]; Trial 2, winter wheat field, rate 1.8 L/ha, 40 DA-A (second 40 DA-A column)
  Fungicide efficacy against Zymoseptoria tritici (% Control): 25.7 % Control

## N#Cc1c(Cl)c(Cl)c(Cl)c(C#N)c1Cl [Chlorothalonil]
[1]; Dose 750 g a.i./ha, strain Zt Tri-R6, wheat leaf fragments treated preventively
  Fungicide efficacy against Zymoseptoria tritici (% Control): 69.2 % Control

## CC1COC(Cn2cncn2)(c2ccc(Oc3ccc(Cl)cc3)cc2Cl)O1 (stereo not drawn) [Difenoconazole]
[1]; Table 2, from AUDPC values, dose 25 g a.i./ha, strain Zt Tri-R6
  Fungicide efficacy against Zymoseptoria tritici (% Control): 81.8 % Control

## OC(Cc1ccccc1Cl)(Cn1nc[nH]c1=S)C1(Cl)CC1 (stereo not drawn) [Prothioconazole]
[1]; Table 3, from AUDPC values, dose 30 g a.i./ha, strain Zt Tri-R6
  Fungicide efficacy against Zymoseptoria tritici (%): 68.2%
[1]; Table 4, from AUDPC values, dose 22.5 g a.i./ha, strain Zt Tri-R6
  Fungicide efficacy against Zymoseptoria tritici (%): 62.9%
[2]; Trial 1, winter wheat field, rate 0.31 L/ha, 28 DA-B (first 28 DA-B column)
  Fungicide efficacy against Zymoseptoria tritici (% Control): 31.2 % Control
[2]; Trial 1, winter wheat field, rate 0.31 L/ha, 28 DA-B (second 28 DA-B column)
  Fungicide efficacy against Zymoseptoria tritici (% Control): 28.8 % Control
[2]; Trial 2, winter wheat field, rate 0.31 L/ha, 26 DA-A
  Fungicide efficacy against Zymoseptoria tritici (% Control): 42.3 % Control
[2]; Trial 2, winter wheat field, rate 0.31 L/ha, 40 DA-A (first 40 DA-A column)
  Fungicide efficacy against Zymoseptoria tritici (% Control): 40.7 % Control
[2]; Trial 2, winter wheat field, rate 0.31 L/ha, 40 DA-A (second 40 DA-A column)
  Fungicide efficacy against Zymoseptoria tritici (% Control): 58.4 % Control

## S1SSSSSSS1 [sulphur]
[1]; Dose 4200 g a.i./ha, strain Zt Tri-R6, wheat leaf fragments treated preventively
  Fungicide efficacy against Zymoseptoria tritici (% Control): 65.8 % Control

## Mancozeb
[1]; [3]
  Fungicide efficacy against Zymoseptoria tritici (% Control): 21.0 % Control
